The values below come from patent publication US6419941B1, “Polyol ester insecticides and method of synthesis” (AVA Chemical Ventures L.L.C., priority 2000, dated 2002).

“Also recorded” adds a separate entry of the source.

What all share (format): in vivo
The test system of one test is pear psylla. The test can be described thus: kill of pear psylla by polyol esters. Conditions: comparison in words, FIG. 1, 6, 7. The method, then:
(§1) The chain lengths were systematically varied to determine if the chain length was critical as to the effectiveness as insecticides. The compounds were tested against pear psylla, tobacco hornworms, tobacco aphids and two-spotted spider mites.

Test [1] can be described thus: insecticidal activity, insect not specified. The note with it: general statement, insect not named.
The next test deals with tobacco aphid. The test can be described thus: effectiveness against tobacco aphid. Conditions: comparison in words, FIG. 9-11. As for the experimental part: as §1
A further test concerns two-spotted spider mite. Kind of test: effectiveness against two-spotted spider mite. Conditions: comparison in words, FIG. 12. The method, then: as §1

Turning to Xylitol decanoate, the “effectiveness (kill data) on pear psylla” value is listed as “most effective” in the test with pear psylla and “the most effective” with pear psylla (listed as C10 acid ester). Also, in test [1], the “effectiveness as insecticide / insecticidal activity” value is given as “the most effective for xylitol”.

sucrose octanoate: the “effectiveness (kill data) on pear psylla” value with pear psylla is “monoesters that are more effective as insecticides than the diesters and triesters”. The “effectiveness as insecticide / insecticidal activity” value in test [1] was “the monoesters were more effective as insecticides than the diesters and triesters”.

Turning to Xylitol dodecanoate [xylitol laurate], in the test with tobacco aphid, the “effectiveness against tobacco aphid” value is “more effective than xylitol decanoate; also recorded: better than a commercially available insecticidal soap product”.

For “D-Glucitol, decanoate [sorbitol decanoate]”, the “effectiveness against tobacco aphid” value in the test on tobacco aphid is on record as “more effective than xylitol laurate; also recorded: better than a commercially available insecticidal soap product”. In the test on two-spotted spider mite, the “effectiveness against two-spotted spider mite” value is given as “marginally more effective than the others”.

For the substance “sucrose stearate [commercial sucrose stearate product]”, the “effectiveness as insecticide / insecticidal activity” value in test [1] was “does not have insecticidal activity”.

As for “D-Glucitol, octanoate [sorbitol octanoate]”, in the test on pear psylla, the “effectiveness (kill data) on pear psylla” value was “the most effective”. Moreover, the “effectiveness as insecticide / insecticidal activity” value in test [1] was “more effective as insecticides”. Besides, the “effectiveness against tobacco aphid” value in the test with tobacco aphid was “more effective than sorbitol decanoate”.
